Test results published in US11433053B2, “LSD1 inhibitor and preparation method and application thereof” (CSPC ZHONGQI PHARMACEUTICAL TECHNOLOGY (SHIJIAZHUANG) CO., …, priority 2017, dated 2022).

How the values were obtained:
[1] = tested on: human small cell lung cancer NCI-H1417 cells subcutaneous xenograft tumor; test: In vivo pharmacodynamic study, NCI-H1417 subcutaneous xenograft tumor CB-17 SCID mouse model; set-up: species or system CB-17 SCID mice
Experimental: The purpose of this experiment was to investigate the efficacy of some of the compounds of the present invention in the in vivo xenograft tumor of human small cell lung cancer NCI-H1417 cells in a CB-17 SCID mouse model.
Week age and weight: 6-8 weeks old, weight 18-23 g
Human small cell lung cancer NCI-H1417 cells were cultured in vitro in a single layer cultured in RPMI-1640 medium (Sigma-aldrich, R0883), supplemented with 10% fetal bovine serum and cultured at 37° C. 5% CO2. When the cell saturation is 80%-90%. The cells are harvested, counted, and inoculated.
0.2 mL of 10×10^6 (NCI-H1417 cells were subcutaneously inoculated into the right back of each mouse (PBS:Matrigel=1:1). After 21 days of tumor inoculation, group administration was started when the average volume reached 107 mm^3.
The experimental solvent was the 10% hydroxypropyl-β-cyclodextrin solution. The preparation method was as follows: 100 g of hydroxypropyl-β-cyclodextrin was weighed into a 1000 mL jar, 800 mL of ultrapure water was added, stirred overnight until completely dissolved, and then made up to 1000 mL. The test substance was dissolved in a solvent, and was prepared into a uniform solution of a certain concentration and stored at 4° C.
The experimental indicator is to investigate whether tumor growth is inhibited, delayed or cured. Tumor diameters were measured twice a week using vernier calipers. The tumor volume is calculated as: V=0.5a×b^2, and a and b represent the long and short diameters of the tumor, respectively.
The antitumor effect of the compound was evaluated by TG (%). TGI (%), reflecting the tumor growth inhibition rate. TGI (%) calculation: TGI (%)=[1−(the average tumor volume at the end of a treatment group−the average tumor volume at the beginning of the treatment group)/(the average tumor volume at the end of the treatment of the solvent control group−The average tumor volume at the start of treatment in the solvent control group) was ×100%. Solvent control: Vehicle (10% hydroxypropyl-β-cyclodextrin solution).

[2] = molecular target: human LSD1 (Homo sapiens (Human), UniProt O60341); test: Evaluation of enzyme activity: LSD1 fluorescence coupling enzyme assay (HRP/Amplex Red); assay type: biochemical; conditions: human LSD1, histone H3(1-21)K4me2 peptide 10 μM, 30 min pre-incubation
Method in brief: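 Human LSD1 preincubated 30 min with compound, then reacted with H3(1-21)K4me2 peptide (10 μM). FAD-dependent H2O2 detected via HRP/Amplex Red fluorescence (Ex/Em 535/590). Ten-dose, 3-fold dilutions in duplicate from 10 μM gave IC50s, binned into activity classes.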

[3] = Pharmacokinetic evaluation in C57BL/6 mice after intravenous and oral administration; assay type: in vivo; conditions: male, mouse, plasma; for Cmax / clearance / half-life / Vd: IV 1 mg/kg; for Cmax: oral 2 mg/kg, route of Cmax not stated, read-out: max concentration Cmax; for clearance: read-out: clearance CL; for half-life: read-out: half-life T1/2 (IV, h) (converted); for Vd: read-out: volumes of distribution Vdss; for bioavailability: PO 2 mg/kg vs IV 1 mg/kg, read-out: bioavailability F (%); for AUC(0-t): PO 2 mg/kg, read-out: the area under the plasma concentration-time curve AUC0-last PO
Experimental: Experimental purposes: To test the pharmacokinetics of compounds in C57BL/6 mice
C57BL/6 mice (male, 7-9 weeks old, Shanghai Slack)
Test the pharmacokinetics characteristics of rodents after intravenous and oral administration in accordance with standard protocols, and the candidate compound was formulated into a clear solution in the experiment. The mice were administered by intravenous injection and orally once. The intravenous and oral vehicle is a 10% aqueous solution of hydroxypropyl β-cyclodextrin or a physiological saline solution. Six male C57BL/6 mice were employed in this assay, three of them were administered intravenously at a dose of 1 mg/kg, plasma samples were collected at 0 h (before administration) and 0.0833, 0.25, 0.5, 1, 2, 4, 7, 24 h after administration. Another three mice were administered by oral gavage at a dose of 2 mg/kg, plasma samples were collected at 0 h (before administration) and 0.5, 1, 2, 3, 4, 6, 24 h after administration. Collect whole blood samples within 24 hours, centrifuge at 3000 g for 15 minutes, separate the supernatant to obtain a plasma sample, 4 times volume of the internal standard acetonitrile solution was added to precipitate the protein. Centrifuge the supernatant and add an equal volume of water and centrifuge to take the supernatant. LC-MS/MS was used to quantitatively analyze plasma concentrations and calculate pharmacokinetic parameters such as max concentration (Cmax), clearance (CL), half-life (T1/2), volumes of distribution (Vdss), the area under the plasma concentration-time curve (AUC0-last), bioavailability (F), etc.

[4] = tested on: H1417 cells; test: Cell proliferation inhibitory activity on H1417 cells (CellTiter-Glo, 10 days); assay type: cell-based, human; conditions: for IC50: 10 days incubation; for Emax: NCI-H1417, H1417 cells, read-out: Maximum inhibition percentage (%)
Method in brief: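 H1417 cells in RPMI 1640 with fetal bovine serum were treated with 10-point 3-fold compound dilutions for 10 days. Viability was read by CellTiter-Glo luminescence. IC50 came from a four-parameter fit of percent inhibition, and maximal inhibition was also categorized.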

[5] = molecular target: hERG potassium channel (Homo sapiens (Human), UniProt Q12809); test: Assay on inhibiting hERG potassium channel (automatic patch clamp, CHO-hERG cells); assay type: cell-based; conditions: Qpatch, max test concentration 40 μM
Experimental: Experimental purpose: Using automatic patch clamp method to detect the effect of the sample to be tested on hERG potassium channel.
4.1.1 CHO-hERG cells were cultured in 175 cm^2 flasks. When the cell density was increased to 60-80%, the culture solution was removed and the resultant was washed with 7 mL PBS (Phosphate Buffered Saline phosphate buffer), then 3 mL of digestive juice was added to digest.
4.1.2 After the digestion finished, 7 mL culture solution was added to neutralize. Then centrifuge, aspirate the supernatant, and then resuspend by adding 5 mL culture solution to ensure a cell density of 2-5×10^6/mL.
Single cell high impedance sealing and whole cell pattern formation were all done automatically by the Qpatch instrument. After the whole-cell recording mode was obtained, the cells were clamped at −80 mV. 50-Millisecond−50 mV preamplifier was applied prior to a 5 second+40 mV depolarization stimulus. Then the voltage was repolarized to −50 mV for 5 seconds and back to −80 mV. This voltage stimulation was applied every 15 seconds, and the extracellular fluid was recorded over 5 minutes after 2 minutes' record, and then the administration process was started. The compound concentration was started from the lowest test concentration, and each test concentration was given for 2.5 minutes. Test at least 3 cells (n≥3) for each concentration.
4.4.1 Dilute 20 mM mother liquor of the compound with extracellular fluid 5 μL of 20 mM mother liquor of the compound was added to 2495 μL extracellular fluid, and the mixture was 500-fold diluted to 40 μM. Then 0.2% DMSO in extracellular fluid was 3-fold diluted sequentially to obtain the final concentration to be tested.
4.4.2 The max test concentration was 40 μM, 6 concentrations were 40, 13.33, 4.44, 1.48, 0.49, and 0.16 μM respectively.
Experimental data was analyzed by XLFit software.

[6] = 1 mg/kg, ip, BIW, day 28 after administration
[7] = 1 mg/kg, ip, BIW, day 34 after administration
[8] = Homo sapiens, NCI-H1417, 240 h, H1417 cells
[9] = Homo sapiens, highest percentage inhibition of cell viability
[10] = 5 mg/kg, PO, QD, day 34 after administration
[11] = 1.5 mg/kg, PO, QD, day 27 after administration

hERG potassium channel, sequence (Q12809 whole entry): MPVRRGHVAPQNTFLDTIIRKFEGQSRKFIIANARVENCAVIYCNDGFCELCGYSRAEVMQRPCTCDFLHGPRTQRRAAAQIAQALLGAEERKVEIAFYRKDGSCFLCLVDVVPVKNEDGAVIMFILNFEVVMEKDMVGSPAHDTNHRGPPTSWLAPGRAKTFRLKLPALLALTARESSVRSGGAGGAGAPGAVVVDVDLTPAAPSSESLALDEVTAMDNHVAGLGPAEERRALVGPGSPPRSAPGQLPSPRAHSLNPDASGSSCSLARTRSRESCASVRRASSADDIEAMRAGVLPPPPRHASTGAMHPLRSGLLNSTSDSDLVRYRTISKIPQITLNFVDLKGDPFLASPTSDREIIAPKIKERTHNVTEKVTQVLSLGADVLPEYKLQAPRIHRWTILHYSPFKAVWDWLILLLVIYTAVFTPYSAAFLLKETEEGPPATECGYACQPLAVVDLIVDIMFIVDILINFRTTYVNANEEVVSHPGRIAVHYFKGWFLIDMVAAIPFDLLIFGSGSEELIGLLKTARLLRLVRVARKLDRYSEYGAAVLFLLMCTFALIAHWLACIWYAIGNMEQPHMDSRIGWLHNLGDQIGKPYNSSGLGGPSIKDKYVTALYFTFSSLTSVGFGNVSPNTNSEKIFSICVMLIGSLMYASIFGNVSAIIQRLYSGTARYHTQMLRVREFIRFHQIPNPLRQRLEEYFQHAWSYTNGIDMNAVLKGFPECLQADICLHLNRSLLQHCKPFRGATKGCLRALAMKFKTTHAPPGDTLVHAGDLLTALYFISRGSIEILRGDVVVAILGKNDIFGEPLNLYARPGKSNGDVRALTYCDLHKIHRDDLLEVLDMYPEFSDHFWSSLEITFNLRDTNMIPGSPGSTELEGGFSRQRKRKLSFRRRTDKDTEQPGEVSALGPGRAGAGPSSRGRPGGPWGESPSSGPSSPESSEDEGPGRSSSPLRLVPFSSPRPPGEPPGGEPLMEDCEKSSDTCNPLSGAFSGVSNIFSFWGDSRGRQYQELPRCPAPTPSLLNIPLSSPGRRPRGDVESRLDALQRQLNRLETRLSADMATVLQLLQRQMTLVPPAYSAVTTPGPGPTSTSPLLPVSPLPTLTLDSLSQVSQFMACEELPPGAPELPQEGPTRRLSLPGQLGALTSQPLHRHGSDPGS

| Structure (SMILES) | IC50 [2] | Cmax [3] | clearance [3] | half-life [3] | Vd [3] | bioavailability [3] | AUC(0-t) [3] | IC50 [4, 8] | Emax [4, 9] | further results |
| --- | --- | --- | --- | --- | --- | --- | --- | --- | --- | --- |
| N.N.[Cl][Pt][Cl] [Cisplatin] |  |  |  |  |  |  |  |  |  | TGI (%) [1, 6]: 90%; Tumor volume (mm^3) (Day 28) [1, 6]: 150 ± 9 mm^3; TGI (%) [1, 7]: 61.2%; Tumor volume (mm^3) (Day 34) [1, 7]: 328 ± 37 mm^3 |
| N#Cc1ccc(-c2nc(C3(CN[C@H]4CC4c4ccccc4)CC3)no2)cc1 (some centres unmarked) [Example 64] | ≤ 50 nM | 1290 ng/mL | 21.9 mL/min/kg | 1.3 h | 1.9 L/kg | 44% | 1.88 µM·h | 100 to 500 nM | 90 to 100% |  |
| Clc1ccc(-c2nc(C3(CN[C@H]4CC4c4ccccc4)CC3)no2)cc1 (some centres unmarked) [Example 65] | ≤ 50 nM | 2070 ng/mL | 10.6 mL/min/kg | 4.2 h | 3 L/kg | 49% | 3.38 µM·h | 100 to 500 nM | 90 to 100% |  |
| FC(F)(F)c1ccc(-c2nc(C3(CN[C@H]4CC4c4ccccc4)CC3)no2)cn1 (some centres unmarked) [Example 66] | ≤ 50 nM | 2140 ng/mL | 13.1 mL/min/kg | 1.5 h | 1.4 L/kg | 57% | 3.51 µM·h | 500 to 1000 nM | 90 to 100% |  |
| NC12CCC(c3nc(C4(CN[C@@H]5C[C@H]5c5ccccc5)CC4)no3)(CC1)CC2 [Example 155] | ≤ 50 nM |  |  |  |  |  |  | 100 to 500 nM | 90 to 100% | TGI (%) [1, 11]: 78.7%; Tumor volume (mm^3) (Day 27) [1, 11]: 200 ± 15 mm^3; IC50 [5]: > 40000 nM |

Second part, led by results:

| IC50 [2] | Cmax [3] | clearance [3] | half-life [3] | Vd [3] | bioavailability [3] | AUC(0-t) [3] | IC50 [4, 8] | Structure (SMILES) | Emax [4, 9] | further results |
| --- | --- | --- | --- | --- | --- | --- | --- | --- | --- | --- |
| ≤ 50 nM |  |  |  |  |  |  | 500 to 1000 nM | N[C@H]1CC[C@H](c2nc(C3(CN[C@H]4CC4c4ccccc4)CC3)no2)CC1 (some centres unmarked) [Example 142] | 70 to 90% | TGI (%) [1, 10]: 94.9%; Tumor volume (mm^3) (Day 34) [1, 10]: 136 ± 21 mm^3 |
| 50 to 100 nM |  |  |  |  |  |  |  | N[C@H]1CC[C@H](c2nc(C3(CN[C@H]4C[C@@H]4c4ccccc4)CC3)no2)CC1 [Example 143] |  | TGI (%) [1, 10]: 93.3%; Tumor volume (mm^3) (Day 34) [1, 10]: 145 ± 29 mm^3; IC50 ([4]; H1417 cells): 500 to 1000 nM; Maximum inhibition percentage (%) ([4]; H1417 cells, highest percentage inhibition of cell viability): C (70%>C≥50%) |
| ≤ 50 nM |  |  |  |  |  |  | 500 to 1000 nM | N[C@H]1C[C@H](c2nc(C3(CN[C@@H]4C[C@H]4c4ccccc4)CC3)no2)C1 [Example 146] | 90 to 100% | IC50 [5]: > 40000 nM |
| ≤ 50 nM |  |  |  |  |  |  | 100 to 500 nM | NC1CC2(C1)CC(c1nc(C3(CN[C@@H]4C[C@H]4c4ccccc4)CC3)no1)C2 (some centres unmarked) [Example 151] | 90 to 100% | TGI (%) [1, 11]: 66.3%; Tumor volume (mm^3) (Day 27) [1, 11]: 250 ± 50 mm^3 |
